From patent US20230017045A1, “PYRIDINE AND PYRIMIDINE CARBOXYLATE HERBICIDES AND METHODS OF USE THEREOF” (Dow AgroSciences LLC, priority 2017, published 2023)
Read-outs that look alike come from different tables or passages of the source.

Tested on: test plant species
Assay: Post-emergent herbicidal activity test (greenhouse, foliar spray, visual growth reduction)
Format: in vivo
Settings: post-emergence, 336 h, 140 g ai/ha, 14 days after application
Method: Post-emergent Test: Seeds or nutlets of the desired test plant species were planted in Sun Gro Metro-Mix® 360 planting mixture, which typically has a pH of 6.0 to 6.8 and an organic matter content of about 30 percent, in plastic pots with a surface area of 64 square centimeters. In some aspects, to ensure good germination and healthy plants, a fungicide treatment and/or other chemical or physical treatment was applied. The plants were grown for 7-21 d in a greenhouse with an approximate 15 h photoperiod which was maintained at 23-29° C. during the day and 22-28° C. during the night. Nutrients and water were added on a regular basis and supplemental lighting was provided with overhead metal halide 1000-Watt lamps as necessary. Plants were used for testing when they reached the first or second true leaf stage. A weighed amount, determined by the highest rate to be tested, of each test compound was placed in a 25 mL glass vial and was dissolved in 4 mL of a 97:3 v/v mixture of acetone and DMSO to obtain concentrated stock solutions. […] The concentrated stock solutions obtained were diluted with 20 mL of an aqueous mixture containing acetone, water, isopropyl alcohol, DMSO, […] crop oil concentrate, and X-77 surfactant in a 48.5:39:10:1.5:1.0:0.02 v/v ratio to obtain spray solutions containing the application rate. Compound requirements are based upon a 12 mL application volume at a rate of 187 liters per hectare (L/ha). Formulated compounds were applied to the plant material with an overhead Mandel track sprayer equipped with […] nozzles calibrated to deliver 187 L/ha over an application area of 0.64 square meters at a spray height of 18 inches (43 cm) above the average plant canopy height. Control plants were sprayed in the same manner with the solvent blank. The treated plants and control plants were placed in a greenhouse as described above and watered by subirrigation to prevent wash-off of the test compounds. After 14 d, the condition of the test plants as compared with that of the nontreated and control plants was determined visually and scored on a scale of 0 to 100 percent where 0 corresponds to no injury and 100 corresponds to complete control. In the reporting of the results, Table A: Percent Growth Reduction Conversion Table was used.

[1] = ALOMY: blackgrass (Alopecurus myosuroides), read-out: Visual Growth Reduction (%) 14 Days After Application, ALOMY
[2] = AMARE: redroot pigweed (Amaranthus retroflexus), read-out: Visual Growth Reduction (%) 14 Days After Application, AMARE
[3] = AVEFA: wild oat (Avena fatua), read-out: Visual Growth Reduction (%) 14 Days After Application, AVEFA
[4] = CHEAL: lambsquarters (Chenopodium album), read-out: Visual Growth Reduction (%) 14 Days After Application, CHEAL
[5] = CIRAR: canada thistle (Cirsium arvense), read-out: Visual Growth Reduction (%) 14 Days After Application, CIRAR
[6] = CYPES: yellow nutsedge (Cyperus esculentus), read-out: Visual Growth Reduction (%) 14 Days After Application, CYPES
[7] = DIGSA: crabgrass (Digitaria sanguinalis), read-out: Visual Growth Reduction (%) 14 Days After Application, DIGSA
[8] = ECHCG: barnyardgrass (Echinochloa crus-galli), read-out: Visual Growth Reduction (%) 14 Days After Application, ECHCG
[9] = IPOHE: ivy-leaf morning glory (Ipomoea hederacea), read-out: Visual Growth Reduction (%) 14 Days After Application, IPOHE
[10] = KCHSC: kochia (Bassia scoparia), read-out: Visual Growth Reduction (%) 14 Days After Application, KCHSC
[11] = SETFA: giant foxtail (Setaria faberi), read-out: Visual Growth Reduction (%) 14 Days After Application, SETFA
[12] = SORVU: grain sorghum (Sorghum vulgare), read-out: Visual Growth Reduction (%) 14 Days After Application, SORVU
[13] = STEME: common chickweed (Stellaria media), read-out: Visual Growth Reduction (%) 14 Days After Application, STEME
[14] = ORYSA: rice (Oryza sativa), read-out: Visual Growth Reduction (%) 14 Days After Application, ORYSA
[15] = TRZAS: wheat, spring (Triticum aestivum), read-out: Visual Growth Reduction (%) 14 Days After Application, TRZAS

Structure (SMILES)	pest or weed control at 140 g/ha [1] [%]	pest or weed control at 140 g/ha [2] [%]	pest or weed control at 140 g/ha [3] [%]	pest or weed control at 140 g/ha [4] [%]	pest or weed control at 140 g/ha [5] [%]	pest or weed control at 140 g/ha [6] [%]	pest or weed control at 140 g/ha [7] [%]	pest or weed control at 140 g/ha [8] [%]	pest or weed control at 140 g/ha [9] [%]	pest or weed control at 140 g/ha [10] [%]	pest or weed control at 140 g/ha [11] [%]	pest or weed control at 140 g/ha [12] [%]	pest or weed control at 140 g/ha [13] [%]	pest or weed control at 140 g/ha [14] [%]	pest or weed control at 140 g/ha [15] [%]
COC(=O)c1nc(-c2ccc(C)cc2Cl)ccc1Cl [F60, Methyl 3-chloro-6-(2-chloro-4-methylphenyl) picolinate]	0 to 29	60 to 74	0 to 29	0 to 29	0 to 29	0 to 29	0 to 29	0 to 29	45 to 59	0 to 29	0 to 29	0 to 29	0 to 29	–	–
O=C(O)c1nc(-c2ccc(C(F)(F)F)cc2Cl)ccc1Cl [F61, 3-chloro-6-(2-chloro-4-(trifluoromethyl)phenyl)picolinic acid]	60 to 74	95 to 100	60 to 74	95 to 100	85 to 94	0 to 29	95 to 100	85 to 94	95 to 100	85 to 94	85 to 94	85 to 94	0 to 29	45 to 59	85 to 94
COC(=O)c1nc(-c2c(F)cc(Cl)cc2Cl)ccc1Cl [F62, Methyl 3-chloro-6-(2,4-dichloro-6-fluorophenyl) picolinate]	0 to 29	95 to 100	0 to 29	75 to 84	75 to 84	0 to 29	75 to 84	–	95 to 100	60 to 74	75 to 84	85 to 94	0 to 29	0 to 29	–
COC(=O)c1nc(-c2ccc(Cl)c(F)c2Cl)ccc1Cl [F63, Methyl 3-chloro-6-(2,4-dichloro-3-fluorophenyl) picolinate]	0 to 29	95 to 100	0 to 29	95 to 100	85 to 94	0 to 29	85 to 94	–	95 to 100	60 to 74	75 to 84	85 to 94	0 to 29	0 to 29	–
COC(=O)c1nc(-c2ccc3c(c2)OC(F)(F)O3)ccc1Cl [F64, Methyl 3-chloro-6-(2,2-difluorobenzo[d] [1,3]dioxol-5-yl) picolinate]	0 to 29	45 to 59	0 to 29	60 to 74	0 to 29	60 to 74	85 to 94	0 to 29	95 to 100	0 to 29	0 to 29	60 to 74	0 to 29	0 to 29	0 to 29
COC(=O)c1nc(-c2cc(F)c(Cl)cc2Cl)ccc1Cl [F65, Methyl 3-chloro-6-(2,4-dichloro-5-fluorophenyl) picolinate]	0 to 29	95 to 100	0 to 29	60 to 74	85 to 94	0 to 29	95 to 100	60 to 74	95 to 100	0 to 29	85 to 94	60 to 74	0 to 29	30 to 44	–
COC(=O)c1nc(-c2ccc(C(F)(F)F)cc2Cl)ccc1Cl [F66, methyl 3-chloro-6-(2-chloro-4-(trifluoromethyl)phenyl)picolinate]	45 to 59	95 to 100	60 to 74	85 to 94	95 to 100	0 to 29	95 to 100	95 to 100	95 to 100	60 to 74	95 to 100	85 to 94	0 to 29	45 to 59	–
O=C(O)c1nc(-c2ccc(Cl)c3c2OC(F)(F)O3)ccc1Cl [F67, 3-Chloro-6-(7-chloro-2,2-difluorobenzo[d] [1,3]dioxol-4-yl) picolinic acid]	0 to 29	45 to 59	0 to 29	0 to 29	0 to 29	0 to 29	0 to 29	0 to 29	0 to 29	0 to 29	0 to 29	0 to 29	–	0 to 29	–
COC(=O)c1nc(-c2ccc(Cl)c3c2OC(F)(F)O3)ccc1Cl [F68, Methyl 3-chloro-6-(7-chloro-2,2-difluorobenzo[d] [1,3]dioxol-4-yl)picolinate]	0 to 29	0 to 29	0 to 29	0 to 29	0 to 29	–	0 to 29	0 to 29	0 to 29	0 to 29	0 to 29	0 to 29	0 to 29	0 to 29	–
COC(=O)c1nc(-c2ccc3cc[nH]c3c2F)ccc1Cl [F69, Methyl 3-chloro-6-(7-fluoro-1H-indol-6-yl)picolinate]	0 to 29	0 to 29	0 to 29	0 to 29	0 to 29	0 to 29	0 to 29	0 to 29	0 to 29	–	–	0 to 29	0 to 29	0 to 29	–
